What all share (type): in vivo, rat
Data set [1] concerns OVX rats. Kind of data set: pQCT monitoring of bone loss in the proximal tibia metaphysis of ovariectomized rats. On the procedure: (§1) It was investigated whether bone loss induced in rats by either ovariectomy (OVX) or the aromatase inhibitor letrozole (Let) could be prevented by the bisphosphonate zoledronic acid (Zol).
(§2) Material and Methods: Adult, skeletally mature, 8-month-old female Wistar rats were assigned to the following treatment groups […]: Sham (vehicle), OVX, Let-treated, OVX +Zol and Let+Zol. Zol was injected into the tail vein as a single dose of 0.8, 4 or 20 μg/kg 3 days before OVX or before initiating daily oral dosing of Let (1 mg/kg) for 24 weeks. Changes in total and cancellous bone mineral density (BMD) and cortical thickness in the proximal tibia metaphysis were monitored non-invasively by peripheral quantitative computed tomography (pQCT) at 0, 2, 4, 8, 12, 16, 20 and 24 weeks.

Data set [2] deals with OVX rats. The data set is described as follows: Compression test of the 5th lumbar vertebral body after OVX. The following applies: single iv 0.8, 4 or 20 μg/kg. On the procedure: as §2
(§3) Both tibiae, femora and lumbar vertebrae L1-L6 were harvested at necropsy in order to carry out biomechanical testing.
(§4) Mechanical properties of the 5th lumbar vertebral body were evaluated in compression after removal of the epiphyseal ends, posterior pedicle arch and spinous process on a 4 mm segment with piano-parallel ends.

For data set [3], the system named is letrozole-treated rats. Kind of data set: pQCT monitoring of bone loss in the proximal tibia metaphysis of rats given daily oral letrozole. On the procedure: as §1, §2
In data set [4] the test system is letrozole-treated rats. Kind of data set: Compression test of the 5th lumbar vertebral body after letrozole administration. On the procedure:
as §2, §3, §4

Setting [5] is: letrozole-treated rats, 4 μg/kg iv.
Setting [6] is: letrozole-treated rats, highest dose (20 μg/kg iv), P<0.01 vs letrozole, NS vs sham.
The mark [7] stands for this setting: daily oral letrozole 1 mg/kg, at 24 weeks, P<0.01 vs sham.

On to `O=P(O)(O)C(O)(Cn1ccnc1)P(=O)(O)O` [zoledronic acid, 2-(imidazol-1yl)-1-hydroxyethane-1,1-diphosphonic acid], for which the “duration of full protection against cancellous bone loss” value in the data set on OVX rats [1] (highest dose (20 μg/kg iv)) amounted to 20 weeks; in the data set with letrozole-treated rats [3] (setting [6]) it was 24 weeks. The “duration of full protection of total BMD (NS vs sham)” value in the data set with OVX rats [1] (highest dose (20 μg/kg iv)) is listed as 24 week; in the data set with letrozole-treated rats [3] (letrozole-treated rats, highest dose (20 μg/kg iv)), 24 week. Besides, the “protection of cortical thickness (NS vs sham at all time points)” value with OVX rats [1] (highest dose (20 μg/kg iv), 24-week study) is reported as “fully protective for the full duration of the study”. The “cancellous bone at 24 weeks” value in the data set with OVX rats [1] (highest dose (20 μg/kg iv), 24 weeks, NS vs sham) is on record as “mild cancellous bone loss was visible”. Further, the “time for which cancellous bone loss was delayed (marginally but significantly)” value was 12 weeks in the data set with OVX rats [1] (single iv 0.8 μg/kg) and 8 weeks with letrozole-treated rats [3] (letrozole-treated rats, single iv 0.8 μg/kg, P<0.05 vs letrozole). The “protective effect on mean cortical thickness” value in the data set with OVX rats [1] (single iv 0.8 μg/kg, at 2 weeks, P<0.05 vs OVX) is “marginal protective effect”; in the data set with letrozole-treated rats [3] (letrozole-treated rats, single iv 0.8 μg/kg, at 2 weeks, P<0.05 vs letrozole), “marginal but significant protective effect”. The “time for which cancellous bone mineral density was significantly better than in OVX controls” value in the data set with OVX rats [1] (single iv 4 μg/kg) and with OVX rats [1] (single iv 20 μg/kg) was 24 weeks throughout. Besides, the “time for which cortical thickness was significantly better than in OVX controls” value in the data set with OVX rats [1] (single iv 4 μg/kg) is on record as 12 weeks; in the data set on OVX rats [1] (single iv 20 μg/kg) it was 24 weeks. Also, the “time for which bone loss (total BMD) was delayed significantly” value in the data set with OVX rats [1] (single iv injection 0.8 μg/kg 3 days before OVX) came to 8 weeks; in the data set with OVX rats [1] (single iv injection 4 μg/kg), 20 weeks; with OVX rats [1] (single iv injection 20 μg/kg), 24 weeks; with letrozole-treated rats [3] (letrozole-treated rats, single iv 4 μg/kg, P<0.01 vs letrozole), 24 weeks; with letrozole-treated rats [3] (letrozole-treated rats, single iv 20 μg/kg, P<0.01 vs letrozole), 24 weeks. Further, the “ultimate bone strength of 5th lumbar vertebral body” value in the data set on OVX rats [2] is “dose-dependently improved”; in the data set with letrozole-treated rats [4] (letrozole-treated rats, single iv 0.8, 4 or 20 μg/kg, compression), “dose-dependently improved”. The “time for which cancellous bone loss was fully prevented” value in the data set on letrozole-treated rats [3] (setting [5]) was determined as 8 weeks. Also, the “time for which cancellous bone mineral density remained significantly higher than in letrozole-treated rats” value with letrozole-treated rats [3] (setting [5]) was 24 weeks. Moreover, the “time for which cortical thinning was fully prevented” value in the data set on letrozole-treated rats [3] (setting [5]) amounted to 4 weeks. Also, the “week until which cortical thickness stayed significantly above the letrozole control” value in the data set with letrozole-treated rats [3] (letrozole-treated rats, 4 μg/kg iv, P<0.01 vs letrozole) turned out to be 20 week. In the data set with letrozole-treated rats [3] (setting [6]), the “time for which cortical thinning was fully protected against” value turned out to be 24 weeks. Also, the “time for which bone loss (total BMD) was delayed (marginally but significantly)” value with letrozole-treated rats [3] (letrozole-treated rats, single iv 0.8 μg/kg) is 4 weeks. The “duration of full protection against Let-induced bone loss” value with letrozole-treated rats [3] (rats, dose of 20 μg/kg) is on record as “at least 24 weeks”. The “protection against cancellous bone loss, cortical thinning and reduction of bone strength induced by daily oral Let” value with letrozole-treated rats [3] (rats, summary in discussion) is recorded as “dose-dependently protects”. The “protection against bone loss in rats treated with letrozole” value in the data set with letrozole-treated rats [3] (summary statement) is “long term protection against bone loss”.
Regarding `N#Cc1ccc(C(c2ccc(C#N)cc2)n2cncn2)cc1` [letrozole, 4-[α-(4-cyanophenyl)-1-(1,2,4-triazolyl)methyl]-benzonitrile], in the data set with letrozole-treated rats [3] (setting [7]), the “change in cancellous bone mineral density (cancellous bone loss)” value was −26%, the “change in mean cortical thickness” value is listed as −21% and the “change in total BMD” value was −13%. Moreover, the “ultimate bone strength of 5th lumbar vertebral body” value in the data set with letrozole-treated rats [4] (daily oral letrozole 1 mg/kg for 24 weeks, NS) is “decreased”.

Source of the values: US20060069067A1, “Combination of an aromatase inhibitor with a bisphosphonate” (priority 2002, published 2006).
